Laboratory results as given in the supplement of paper PMC10307832.

Columns and labels:
Assay in all cases: relative viability (nuclei count vs DMSO), 5 days (fraction); higher = more cells survive
[1] = compound: CC1=NN=C(O1)C2=NN=C(C=C2)N3CCC(CC3)OC4=C(C=CC(=C4)F)Cl + Cc1nc(NC(=O)N2CCC[C@H]2C(N)=O)sc1-c1ccnc(C(C)(C)C(F)(F)F)c1 [Alpelisib] (partner 2 µM)
Method in brief: (§1)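 Lung cancer cell lines in 1536-well plates got either a single drug or a fixed anchor-drug dose together with five library-drug doses (not always all listed) in √10 steps, by pin tool, on the day after seeding. Nuclei were counted after 5 days, and relative viability is the treated-to-vehicle ratio of nuclei counts. Values are medians of duplicate plates.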

[2] = compound: CC(C)C[C@@H](C(=O)N[C@H](C(=O)OC1CCCC1)c1ccccc1)[C@H](O)C(=O)NO [Tosedostat] + N=C(N)NC(=N)NCCc1ccccc1 [Phenformin] (partner 250 µM)
Method in brief: as §1

[3] = compound: CC(C)C[C@@H](C(=O)N[C@H](C(=O)OC1CCCC1)c1ccccc1)[C@H](O)C(=O)NO [Tosedostat] + CC1(C)CCC(c2ccc(Cl)cc2)=C(CN2CCN(c3ccc(C(=O)NS(=O)(=O)c4ccc(N[C@H](CCN5CCOCC5)CSc5ccccc5)c(S(=O)(=O)C(F)(F)F)c4)cc3)CC2)C1 [Navitoclax] (partner 0.5 µM)
Method in brief: as §1

[4] = compound: CC1=NN=C(O1)C2=NN=C(C=C2)N3CCC(CC3)OC4=C(C=CC(=C4)F)Cl + CCNC(=O)c1noc(-c2cc(C(C)C)c(O)cc2O)c1-c1ccc(CN2CCOCC2)cc1 [Luminespib] (partner 0.01 µM)
Method in brief: as §1

Cell Line | relative viability ([1]; first compound 0.253 µM) | relative viability ([1]; first compound 0.8 µM) | relative viability ([1]; first compound 2.53 µM) | relative viability ([1]; first compound 8 µM) | relative viability ([2]; first compound 0.02 µM) | relative viability ([2]; first compound 0.06325 µM) | relative viability ([2]; first compound 0.2 µM) | relative viability ([2]; first compound 0.6325 µM) | relative viability ([2]; first compound 2 µM) | relative viability ([3]; first compound 0.02 µM) | relative viability ([3]; first compound 0.06325 µM) | relative viability ([3]; first compound 0.2 µM) | relative viability ([3]; first compound 0.6325 µM) | relative viability ([3]; first compound 2 µM) | relative viability ([4]; first compound 0.253 µM) | relative viability ([4]; first compound 0.8 µM) | relative viability ([4]; first compound 2.53 µM) | relative viability ([4]; first compound 8 µM)
201T | 0.594 | 0.614 | 0.578 | 0.563 | 0.425 | 0.445 | 0.461 | 0.428 | 0.445 | 1.19 | 1.24 | 1.29 | 1.32 | 1.28 | 0.486 | 0.589 | 0.499 | 0.566
A549 | 0.573 | 0.666 | 0.581 | 0.463 | 0.154 | 0.217 | 0.233 | 0.101 | 0.116 | 1.37 | 1.15 | 1.14 | 1.19 | 1.01 |  |  |  | 
A-427 | 1.05 |  | 1.02 | 0.882 | 0.322 | 0.393 | 0.376 | 0.301 | 0.323 | 0.921 | 0.925 | 0.999 | 1.03 | 0.925 | 0.882 |  | 0.708 | 0.732
ABC-1 | 0.729 | 0.567 | 0.568 | 0.642 | 0.201 | 0.201 | 0.247 | 0.23 | 0.206 |  |  |  |  |  | 0.35 | 0.362 | 0.207 | 0.262
BEN | 0.767 | 0.899 | 1.05 | 0.901 | 0.263 | 0.251 | 0.269 | 0.253 | 0.273 | 0.35 | 0.0546 | 0.0614 | 0.0633 | 0.0537 | 0.47 | 0.459 | 0.312 | 0.18
CAL-12T | 1.14 | 0.871 | 0.989 | 0.877 | 0.639 | 0.552 | 0.508 | 0.446 | 0.371 | 1.27 | 1.13 | 1.19 | 1.16 | 0.965 | 0.362 | 0.342 | 0.501 | 0.415
COR-L23 | 0.591 | 0.657 | 0.574 | 0.552 | 0.486 | 0.386 | 0.415 | 0.383 | 0.401 | 1.2 | 1.04 | 1.04 | 0.884 | 0.958 | 0.587 | 0.647 | 0.458 | 0.474
COR-L 105 | 0.925 | 1.03 | 1.12 | 1.29 | 0.517 | 0.465 | 0.447 | 0.399 | 0.363 | 0.673 | 0.624 | 0.707 | 0.722 | 0.512 | 0.622 | 0.812 | 0.691 | 0.625
Calu-6 | 0.808 | 0.864 | 0.895 | 0.846 |  |  |  |  |  | 0.919 | 0.787 | 0.655 | 0.668 | 0.461 |  |  |  | 
ChaGo-K-1 |  |  |  |  | 0.435 | 0.522 | 0.487 | 0.412 | 0.359 | 1.23 | 1.1 | 0.905 | 1.01 | 0.761 | 0.426 | 0.532 | 0.56 | 0.541
EBC-1 | 0.752 | 0.908 | 0.756 | 0.74 |  |  |  |  |  | 0.42 | 0.473 | 0.423 | 0.356 | 0.305 |  |  |  | 
EKVX | 0.446 | 0.323 | 0.363 | 0.462 | 0.216 | 0.236 | 0.228 | 0.202 | 0.192 | 0.962 | 0.969 | 0.898 | 0.944 | 0.804 | 0.447 | 0.362 | 0.331 | 0.32
EMC-BAC-2 | 0.69 | 0.649 | 0.695 | 0.581 | 0.495 | 0.508 | 0.552 | 0.473 | 0.442 | 1.11 | 1.2 | 1.15 | 1.14 | 1.19 | 0.987 | 0.977 | 1.03 | 0.917
EPLC-272H | 0.925 |  | 1.14 | 0.917 | 0.288 | 0.299 | 0.259 | 0.239 | 0.189 | 1.19 | 1.3 | 0.826 | 0.775 | 0.576 | 0.226 | 0.167 | 0.313 | 0.267
H3255 | 0.562 | 0.614 | 0.633 | 0.571 | 0.361 | 0.369 | 0.386 | 0.407 | 0.402 | 0.464 | 0.546 | 0.404 | 0.388 | 0.471 | 0.82 | 0.737 | 0.727 | 0.66
HARA | 0.54 | 0.479 | 0.516 | 0.481 | 0.505 | 0.383 | 0.433 | 0.326 | 0.35 | 1.17 | 1.2 | 1.1 | 0.894 | 1.15 | 0.234 | 0.204 | 0.202 | 0.184
HCC-15 | 0.661 | 0.578 | 0.582 | 0.584 | 0.512 | 0.46 | 0.432 | 0.348 | 0.32 | 0.772 | 0.729 | 0.684 | 0.659 | 0.57 | 0.342 | 0.303 | 0.294 | 0.286
HCC-44 | 0.491 | 0.573 | 0.56 | 0.474 | 0.19 | 0.221 | 0.183 | 0.111 | 0.117 | 0.849 | 0.912 | 0.949 | 0.946 | 0.539 | 0.739 | 0.812 | 0.725 | 0.731
HCC-78 | 0.318 | 0.309 | 0.308 | 0.321 | 0.644 | 0.68 | 0.637 | 0.671 | 0.752 | 0.717 | 0.808 | 0.736 | 0.868 | 0.948 |  |  |  | 
HCC-366 | 0.205 | 0.212 | 0.284 | 0.323 | 0.573 | 0.623 | 0.638 | 0.532 | 0.6 | 1.15 | 1.01 | 1.02 | 1.01 | 1.11 |  |  |  | 
